# In article PMC6458995, “MAP4K4 Inhibition Promotes Survival of Human Stem Cell-Derived Cardiomyocytes and Reduces Infarct Size In Vivo” (Cell Stem Cell, 2019):
# Tests used:
# Assay in all cases: Dundee kinase panel
# Type in all cases: biochemical
# Conditions in all cases: for remaining activity at 1 µM: read-out: residual activity
# EPH-B2 = target: T1, EPH-B2 (Homo sapiens, UniProt P29323)
# T1 construct: lines 1-140) and Reaction Biology
# T1 sequence (P29323 19-1055): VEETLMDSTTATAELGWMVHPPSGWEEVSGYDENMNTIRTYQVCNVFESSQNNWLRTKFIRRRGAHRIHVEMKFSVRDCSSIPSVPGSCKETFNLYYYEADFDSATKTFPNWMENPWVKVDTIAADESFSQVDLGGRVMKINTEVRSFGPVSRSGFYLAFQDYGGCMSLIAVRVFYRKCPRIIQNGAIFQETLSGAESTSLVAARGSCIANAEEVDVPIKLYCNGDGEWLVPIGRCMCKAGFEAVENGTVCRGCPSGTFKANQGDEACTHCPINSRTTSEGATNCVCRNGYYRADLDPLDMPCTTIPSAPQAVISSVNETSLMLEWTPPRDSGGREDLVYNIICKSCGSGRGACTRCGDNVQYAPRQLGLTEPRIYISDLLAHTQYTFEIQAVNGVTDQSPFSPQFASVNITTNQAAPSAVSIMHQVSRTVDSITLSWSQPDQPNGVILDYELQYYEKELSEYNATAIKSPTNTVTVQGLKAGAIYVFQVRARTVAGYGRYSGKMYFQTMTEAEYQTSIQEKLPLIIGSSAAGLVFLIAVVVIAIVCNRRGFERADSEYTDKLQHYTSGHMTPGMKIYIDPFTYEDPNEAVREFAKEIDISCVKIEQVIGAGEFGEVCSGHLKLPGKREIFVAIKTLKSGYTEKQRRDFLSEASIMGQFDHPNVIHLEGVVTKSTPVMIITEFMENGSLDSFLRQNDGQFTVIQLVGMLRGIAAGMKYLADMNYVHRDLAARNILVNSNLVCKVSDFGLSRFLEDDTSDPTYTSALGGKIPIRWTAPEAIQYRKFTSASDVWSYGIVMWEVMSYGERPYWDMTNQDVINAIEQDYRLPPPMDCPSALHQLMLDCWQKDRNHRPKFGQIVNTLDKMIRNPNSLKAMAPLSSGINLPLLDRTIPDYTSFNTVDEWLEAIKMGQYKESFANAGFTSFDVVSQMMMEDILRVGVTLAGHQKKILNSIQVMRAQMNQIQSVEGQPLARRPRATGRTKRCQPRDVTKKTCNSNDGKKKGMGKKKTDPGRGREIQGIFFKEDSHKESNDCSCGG
# Procedure: (§1) Compounds were screened at 1 μM. For key hits, pIC50 values were then determined by HTRF as above. […] Stability in mouse and human liver microsomes was determined by Cyprotex.
# IKKe = target: T2, IKKe (Homo sapiens, UniProt Q14164)
# T2 construct: lines 1-140) and Reaction Biology
# T2 sequence (Q14164 1-716): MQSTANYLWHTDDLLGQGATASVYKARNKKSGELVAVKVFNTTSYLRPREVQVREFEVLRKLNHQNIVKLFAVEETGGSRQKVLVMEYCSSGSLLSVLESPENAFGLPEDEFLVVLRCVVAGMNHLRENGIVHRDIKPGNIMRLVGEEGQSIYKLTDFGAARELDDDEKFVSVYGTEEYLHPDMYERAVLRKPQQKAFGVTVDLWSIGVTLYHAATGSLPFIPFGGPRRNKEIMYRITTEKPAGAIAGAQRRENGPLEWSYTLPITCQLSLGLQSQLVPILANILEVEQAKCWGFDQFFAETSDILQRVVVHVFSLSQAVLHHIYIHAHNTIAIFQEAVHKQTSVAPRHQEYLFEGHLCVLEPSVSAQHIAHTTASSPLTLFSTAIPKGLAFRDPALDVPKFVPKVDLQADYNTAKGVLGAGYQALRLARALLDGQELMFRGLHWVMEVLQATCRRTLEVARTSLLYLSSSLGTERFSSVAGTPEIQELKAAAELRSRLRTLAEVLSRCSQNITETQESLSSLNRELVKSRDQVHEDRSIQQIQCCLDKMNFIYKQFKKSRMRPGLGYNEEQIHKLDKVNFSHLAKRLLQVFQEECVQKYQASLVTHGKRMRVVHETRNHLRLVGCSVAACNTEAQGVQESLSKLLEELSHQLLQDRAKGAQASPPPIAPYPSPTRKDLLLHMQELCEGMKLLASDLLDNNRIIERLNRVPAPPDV
# Procedure: as §1
# JAK2 = target: T3, JAK2 (Homo sapiens, UniProt O60674)
# T3 construct: lines 1-140) and Reaction Biology
# T3 sequence (O60674 whole entry): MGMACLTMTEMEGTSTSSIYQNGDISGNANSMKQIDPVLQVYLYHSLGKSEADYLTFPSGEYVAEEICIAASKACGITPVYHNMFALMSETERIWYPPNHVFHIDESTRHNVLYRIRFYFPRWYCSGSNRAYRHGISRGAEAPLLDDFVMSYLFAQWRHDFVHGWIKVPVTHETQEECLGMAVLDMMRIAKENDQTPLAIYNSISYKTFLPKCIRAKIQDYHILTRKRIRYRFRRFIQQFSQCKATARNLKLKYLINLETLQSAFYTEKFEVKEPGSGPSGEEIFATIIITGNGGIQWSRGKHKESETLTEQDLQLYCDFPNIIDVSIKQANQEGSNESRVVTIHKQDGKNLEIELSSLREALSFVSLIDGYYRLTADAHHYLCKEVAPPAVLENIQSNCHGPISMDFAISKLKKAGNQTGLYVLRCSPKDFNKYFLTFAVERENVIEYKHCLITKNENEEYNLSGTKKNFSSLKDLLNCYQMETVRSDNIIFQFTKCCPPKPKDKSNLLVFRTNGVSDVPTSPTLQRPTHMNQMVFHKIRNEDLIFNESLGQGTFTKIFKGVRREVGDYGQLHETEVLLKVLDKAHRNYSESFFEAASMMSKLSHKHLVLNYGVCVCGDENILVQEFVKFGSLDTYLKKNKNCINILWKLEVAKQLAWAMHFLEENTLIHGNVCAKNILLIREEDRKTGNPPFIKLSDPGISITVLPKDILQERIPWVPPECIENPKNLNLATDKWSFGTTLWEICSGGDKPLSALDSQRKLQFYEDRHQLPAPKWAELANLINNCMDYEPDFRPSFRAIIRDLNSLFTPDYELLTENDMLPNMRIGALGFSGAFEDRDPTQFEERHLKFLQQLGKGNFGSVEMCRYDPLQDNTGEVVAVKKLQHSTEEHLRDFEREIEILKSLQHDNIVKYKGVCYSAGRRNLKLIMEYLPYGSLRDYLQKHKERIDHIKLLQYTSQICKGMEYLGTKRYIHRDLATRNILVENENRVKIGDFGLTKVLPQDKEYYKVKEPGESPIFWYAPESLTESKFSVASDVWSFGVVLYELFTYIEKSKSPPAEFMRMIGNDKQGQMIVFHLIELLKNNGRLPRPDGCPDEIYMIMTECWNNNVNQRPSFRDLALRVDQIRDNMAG
# Procedure: as §1
# PAK5 = target: T4, PAK5 (Homo sapiens, UniProt Q9P286)
# T4 construct: lines 1-140) and Reaction Biology
# T4 sequence (Q9P286 whole entry): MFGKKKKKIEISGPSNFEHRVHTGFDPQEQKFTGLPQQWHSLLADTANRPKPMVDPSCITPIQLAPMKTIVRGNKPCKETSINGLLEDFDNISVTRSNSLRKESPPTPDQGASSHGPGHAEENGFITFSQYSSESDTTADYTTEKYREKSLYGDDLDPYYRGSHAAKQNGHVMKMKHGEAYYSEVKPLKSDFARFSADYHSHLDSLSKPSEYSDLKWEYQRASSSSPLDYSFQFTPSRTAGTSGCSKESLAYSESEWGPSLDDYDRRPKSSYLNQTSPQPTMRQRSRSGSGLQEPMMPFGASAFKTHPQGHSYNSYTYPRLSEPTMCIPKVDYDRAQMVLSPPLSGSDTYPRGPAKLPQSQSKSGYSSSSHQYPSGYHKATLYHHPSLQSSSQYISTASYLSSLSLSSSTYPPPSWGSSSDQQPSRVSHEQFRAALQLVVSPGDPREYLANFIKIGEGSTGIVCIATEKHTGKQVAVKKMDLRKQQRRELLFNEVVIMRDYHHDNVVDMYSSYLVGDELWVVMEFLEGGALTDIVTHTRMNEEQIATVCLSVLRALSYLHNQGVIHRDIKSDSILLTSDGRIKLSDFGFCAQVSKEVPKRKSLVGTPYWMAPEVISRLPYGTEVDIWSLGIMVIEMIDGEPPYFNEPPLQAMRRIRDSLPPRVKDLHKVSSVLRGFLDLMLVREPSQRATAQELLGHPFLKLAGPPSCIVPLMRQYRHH
# Procedure: as §1
# PKD1 = target: T5, PKD1 (Homo sapiens, UniProt Q15139)
# T5 construct: lines 1-140) and Reaction Biology
# T5 sequence (Q15139 1-912): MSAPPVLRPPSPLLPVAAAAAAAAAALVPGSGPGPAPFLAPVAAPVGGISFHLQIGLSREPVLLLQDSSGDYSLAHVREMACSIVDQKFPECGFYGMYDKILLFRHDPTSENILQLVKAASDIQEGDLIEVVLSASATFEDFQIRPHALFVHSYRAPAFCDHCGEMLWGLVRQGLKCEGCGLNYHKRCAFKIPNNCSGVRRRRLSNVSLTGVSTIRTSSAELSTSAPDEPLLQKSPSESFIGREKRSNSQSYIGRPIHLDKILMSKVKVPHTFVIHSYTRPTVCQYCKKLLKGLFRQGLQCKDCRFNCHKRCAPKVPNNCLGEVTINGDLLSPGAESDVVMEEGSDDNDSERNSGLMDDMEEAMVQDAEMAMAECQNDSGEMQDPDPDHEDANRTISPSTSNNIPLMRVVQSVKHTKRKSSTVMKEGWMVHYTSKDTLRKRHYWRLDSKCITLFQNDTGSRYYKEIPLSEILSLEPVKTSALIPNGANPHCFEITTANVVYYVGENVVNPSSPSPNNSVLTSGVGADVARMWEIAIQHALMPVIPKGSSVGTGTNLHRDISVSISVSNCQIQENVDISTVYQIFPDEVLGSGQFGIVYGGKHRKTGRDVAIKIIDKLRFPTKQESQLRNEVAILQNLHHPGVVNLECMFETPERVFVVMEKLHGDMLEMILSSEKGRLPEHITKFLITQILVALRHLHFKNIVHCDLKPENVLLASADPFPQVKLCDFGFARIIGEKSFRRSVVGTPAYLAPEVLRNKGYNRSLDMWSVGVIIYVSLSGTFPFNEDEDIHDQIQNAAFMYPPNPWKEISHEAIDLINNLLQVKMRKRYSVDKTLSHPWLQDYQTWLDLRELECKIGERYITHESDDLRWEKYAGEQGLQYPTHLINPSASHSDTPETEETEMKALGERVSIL
# Procedure: as §1
# SIK2 = target: T6, SIK2 (Homo sapiens, UniProt Q9H0K1)
# T6 construct: lines 1-140) and Reaction Biology
# T6 sequence (Q9H0K1 whole entry): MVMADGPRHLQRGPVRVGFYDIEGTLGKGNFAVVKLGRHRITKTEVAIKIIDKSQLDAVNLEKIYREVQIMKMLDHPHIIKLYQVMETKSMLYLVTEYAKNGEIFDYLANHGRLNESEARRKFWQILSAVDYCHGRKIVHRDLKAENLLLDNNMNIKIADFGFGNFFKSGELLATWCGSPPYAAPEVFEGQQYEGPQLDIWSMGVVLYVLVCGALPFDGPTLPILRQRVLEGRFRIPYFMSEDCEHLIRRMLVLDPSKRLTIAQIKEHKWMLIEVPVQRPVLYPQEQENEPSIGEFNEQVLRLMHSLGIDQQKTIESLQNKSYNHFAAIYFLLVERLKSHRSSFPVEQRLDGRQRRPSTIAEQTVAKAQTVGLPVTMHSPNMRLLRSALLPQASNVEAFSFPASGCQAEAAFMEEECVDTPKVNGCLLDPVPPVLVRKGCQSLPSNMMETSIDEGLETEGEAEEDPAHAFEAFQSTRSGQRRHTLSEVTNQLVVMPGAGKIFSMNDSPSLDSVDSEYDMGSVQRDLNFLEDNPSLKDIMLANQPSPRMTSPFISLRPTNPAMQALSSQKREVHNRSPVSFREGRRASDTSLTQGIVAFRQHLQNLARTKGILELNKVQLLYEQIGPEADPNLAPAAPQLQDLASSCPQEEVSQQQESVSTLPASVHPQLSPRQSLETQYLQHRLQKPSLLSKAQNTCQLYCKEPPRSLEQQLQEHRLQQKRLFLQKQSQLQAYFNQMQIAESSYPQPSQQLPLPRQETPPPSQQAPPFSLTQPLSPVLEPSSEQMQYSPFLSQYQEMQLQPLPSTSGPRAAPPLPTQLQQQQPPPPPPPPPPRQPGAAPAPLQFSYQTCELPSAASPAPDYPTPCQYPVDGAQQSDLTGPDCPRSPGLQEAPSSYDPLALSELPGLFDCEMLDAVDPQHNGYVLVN
# Procedure: as §1
Structure (SMILES),remaining activity at 1 µM (EPH-B2),remaining activity at 1 µM (IKKe),remaining activity at 1 µM (JAK2),remaining activity at 1 µM (PAK5),remaining activity at 1 µM (PKD1),remaining activity at 1 µM (SIK2),residual activity (EPH-B2; 1 μM),residual activity (IKKe; 1 μM),residual activity (JAK2; 1 μM),residual activity (PAK5; 1 μM),residual activity (PKD1; 1 μM),residual activity (SIK2; 1 μM)
"COCCOc1ccc(-c2cn(-c3ccccc3)c3nc[nH]c(=O)c23)cc1 [DMX-5804, 5-[4-(2-methoxy-ethoxy)-phenyl]-7-phenyl-3,7-dihydro-pyrrolo[2,3-d]pyrimidin-4-one]",102%,106%,70%,105%,102%,90%,–,–,–,–,–,–
"Oc1ncnc2c1c(-c1ccccc1)cn2-c1ccccc1 [F1386-0303, 5,7-diphenyl-7H-pyrrolo[2,3-d]pyrimidin-4-ol]",78%,139%,94%,105%,103%,99%,–,–,–,–,–,–
Nc1ncc(C(=O)NC2CN(C(=O)C3CC3)C2)c2ccc(-c3cccc(F)c3)nc12 [GNE-495],–,–,–,–,–,–,102%,79%,76%,55%,68%,102%
O=C1Nc2ccc(I)cc2/C1=C/c1cc(Br)c(O)c(Br)c1 [GW5074],94%,82%,82%,77%,66%,24%,–,–,–,–,–,–
O=C1Cc2c([nH]c3ccc(Br)cc23)-c2ccccc2N1 [Kenpaullone],99%,98%,105%,12%,100%,13%,–,–,–,–,–,–
